The test addresses T1, PG (Chryseobacterium proteolyticum, UniProt Q9AQQ8).
T1 construct: made in house
T1 sequence (Q9AQQ8 136-320): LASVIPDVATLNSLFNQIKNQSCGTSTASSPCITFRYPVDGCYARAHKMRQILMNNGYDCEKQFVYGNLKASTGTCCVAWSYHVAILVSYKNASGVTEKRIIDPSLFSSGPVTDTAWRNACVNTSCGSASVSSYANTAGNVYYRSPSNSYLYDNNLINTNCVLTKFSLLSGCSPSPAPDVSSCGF
Type of test: biochemical. As to the method:
Calcium chelating materials were added to LTLT sterilized milk (66° C., 30 minutes: Takanashi low temperature sterilized milk) properly. The reactivity of PG with each milk sample was measured as follows. To each milk sample was added 0.4 U/ml (corresponding to about 12 u per 1 g of milk protein) of PG (a purified product described in Experimental Example 1) and incubated at 50° C. for 60 minutes. The enzyme reaction was ceased by adding 12% TCA the amount of which is the same as the reacting solution and centrifuged (12,000 rpm, 5° C., 5 minutes) to measure the amount of ammonium in the supernatant using an ammonium quantitative measurement kit, F-kit (Roche).
Alkaline materials were added to LTLT sterilized milk (66° C., 30 minutes: Takanashi low temperature sterilized milk) properly so as to adjust the pH 7 to 8.4. The reactivity of PG with each milk sample was measured as in Example 1.
Glutathione or cysteine (Nacalai Tesque, Inc.) as a thiol-type reducing agent was added to LTLT sterilized milk (66° C., 30 minutes: Takanashi low temperature sterilized milk) properly. The reactivity of PG to each milk was measured as in Example 1. […] By the same manner, the reactivity of PG to milk was measured by adding glutathione yeast extract (AROMILD UG8, Kohjin Co., Ltd.) to milk at different concentrations.

Setting [1] is: alkaline additive 0.20% in LTLT milk, control (pH 6.67) 13.6.
Setting [2] is: alkaline additive 0.25% in LTLT milk, control (pH 6.67) 13.6.
[3] abbreviates: alkaline additive 0.30% in LTLT milk, control (pH 6.67) 13.6.
Setting [4] is: alkaline additive […] in LTLT milk, control (pH 6.67) 13.6.
[5] abbreviates: additive 0.4% in LTLT milk, PG 0.4 U/ml, 50° C., 60 minutes, control 22.1.
Setting [6] is: additive 0.5% in LTLT milk, PG 0.4 U/ml, 50° C., 60 minutes, control 22.1.

Read-outs that look alike come from different tables or passages of the source.

The values below come from US8318223B2, “Method for producing modified milk” (Ajinomoto Co., Inc., priority 2008, dated 2012).

With `N=C(N)NCCC[C@H](N)C(=O)O` [Arg (amino acid), arginine], the “PG reactivity (%)” value under setting [1] amounted to 54.1%; the “PG reactivity (%)” value under setting [2] turned out to be 67%; the “PG reactivity (%)” value under setting [3] is reported as 76.2%; the “PG reactivity (%)” value (alkaline additive 0.40% in LTLT milk, control (pH 6.67) 13.6) came out at 75%.

In the case of `O=C([O-])CN(CCN(CC(=O)[O-])CC(=O)[O-])CC(=O)[O-].[Na+].[Na+].[Na+].[Na+]` [EDTA, tetrasodium ethylenediaminetetraacetate], the “PG reactivity (%)” value (additive 20 mM in LTLT milk, PG 0.4 U/ml, 50° C., 60 minutes, control 22.1) is given as 55.9%.

Take `O=C([O-])[O-].[K+].[K+]` [Potassium carbonate]: the “PG reactivity (%)” value (alkaline additive 0.13% in LTLT milk, control (pH 6.67) 13.6) stood at 62.5%.

For `O=C([O-])[O-].[Na+].[Na+]` [Sodium carbonate], the “PG reactivity (%)” value is 61.7% (alkaline additive 0.10% in LTLT milk, control (pH 6.67) 13.6); 65% under setting [1]; 72.7% under setting [4].

As for `O=C([O-])O.[Na+]` [Sodium hydrogen carbonate], the “PG reactivity (%)” value under setting [3] was 58.1% and the “PG reactivity (%)” value (alkaline additive 1.00% in LTLT milk, control (pH 6.67) 13.6) was 57.8%.

Turning to `O=C([O-])CC(O)(CC(=O)[O-])C(=O)[O-].[Na+].[Na+].[Na+]` [Trisodium citrate], the “PG reactivity (%)” value (additive 0.2% in LTLT milk, PG 0.4 U/ml, 50° C., 60 minutes, control 22.1) stood at 40.5%; the “PG reactivity (%)” value under setting [5] was determined as 47.3%; the “PG reactivity (%)” value under setting [6] is recorded as 42.8%.

As for `O=P([O-])([O-])[O-].[Na+].[Na+].[Na+]` [Trisodium phosphate], the “PG reactivity (%)” value is, setting by setting: under setting [1], 65.8%; under setting [2], 72%; under setting [4], 54.9%.

Turning to sodium γ-polyglutamate [γ-PGA], the “PG reactivity (%)” value by setting is: under setting [5], 49.8%; under setting [6], 58.1%; (additive 0.75% in LTLT milk, PG 0.4 U/ml, 50° C., 60 minutes, control 22.1) 79.2%; (additive 1% in LTLT milk, PG 0.4 U/ml, 50° C., 60 minutes, control 22.1) 96.1%.
